This is an account of results in the supplement of paper PMC11061612.

Common to all, as to test: combination Emax (second highest fraction inhibited in the dose matrix, 72 h); higher = more inhibition; extreme values may be limits of the assay
Assay [1] has as its system Hs-578-T (Breast Carcinoma). The gist of the method: (§1)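 After 24 hours at 37°C and 5% CO2 in 1536-well plates, cells in DMEM/F12 or RPMI plus 10% FBS received two-drug dose matrices for 72 hours. Viability came from CellTiter-Glo 2.0 luminescence and was scaled as inhibition, anchored at 0 by vehicle wells and at 1 by blank wells. Combination Emax is taken as the second-highest inhibition in the matrix, and Bliss excess as the observed combination effect less EA + EB − EA·EB, with EA and EB the single-agent effects.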

Assay [2] relates to SNU-5 (Gastric Carcinoma). The gist of the method:
as §1

The next assay concerns 42-MG-BA (Glioblastoma). The gist of the method: as §1
The test system of assay [3] is HuP-T4 (Pancreatic Carcinoma). The gist of the method:
as §1

The subject of assay [4] is CAL-148 (Breast Carcinoma). In a few lines: as §1
In assay [5] the test system is TCCSUP (Bladder Carcinoma). The gist of the method: as §1
Assay [6] relates to DoTc2-4510 (Cervical Carcinoma). The gist of the method:
as §1

For assay [7], the system named is COLO-205 (Colorectal Carcinoma). In a few lines:
as §1

The subject of the next assay is NOS-1 (Osteosarcoma). The gist of the method: as §1
For assay [8], the system named is LS-180 (Colorectal Carcinoma). The gist of the method:
as §1

A further assay concerns AGS (Gastric Carcinoma). In a few lines:
as §1

Another assay has as its system ES4 (Ewing's Sarcoma). The gist of the method:
as §1

Assay [9] concerns HT-1376 (Bladder Carcinoma). The gist of the method: as §1
Assay [10] has as its system CCRF-CEM (T-Lymphoblastic Leukemia). In a few lines:
as §1

The next assay concerns HOS (Osteosarcoma). The gist of the method: as §1
Assay [11] relates to Ramos-2G6-4C10 (Burkitt's Lymphoma). The gist of the method:
as §1

Assay [12] relates to LB831-BLC (Bladder Carcinoma). In a few lines: as §1
In assay [13] the test system is KYSE-520 (Esophageal Squamous Cell Carcinoma). In a few lines:
as §1

The test system of assay [14] is TE-15 (Esophageal Squamous Cell Carcinoma). In a few lines: as §1
Assay [15] concerns LU-135 (Small Cell Lung Carcinoma). The gist of the method:
as §1

For the molecule `C=CCn1c(=O)c2cnc(Nc3ccc(N4CCN(C)CC4)cc3)nc2n1-c1cccc(C(C)(C)O)n1` [AZD1775] + C[C@@H]1COCCN1C2=NC(=NC(=C2)C3(CC3)[S@](=N)(=O)C)C4=C5C=CNC5=NC=C4 [AZD6738] (first compound max 1 µM, partner max 10 µM), the “combination Emax” value is 0.921 in [1]; 0.934 in [2]; 0.763 with 42-MG-BA (Glioblastoma); 0.521 in assay [3]; 1 in assay [4]; 0.755 in [5]. Moreover, the “combination Emax” value amounted to 0.751 in [6]; 0.863 in assay [7]; 0.622 in the assay with NOS-1 (Osteosarcoma); 0.809 in assay [8]; 0.848 in the assay with AGS (Gastric Carcinoma); 0.826 with ES4 (Ewing's Sarcoma). Also, the “combination Emax” value in assay [9] stood at 0.67; in assay [10], 1; in the assay with HOS (Osteosarcoma), 0.911; in [11], 1; in [12], 0.72; in [13], 0.661. Moreover, the entries for the “combination Emax” value in assay [14] and in [15] were 0.761 and 0.751, respectively.
Regarding `C=CCn1c(=O)c2cnc(Nc3ccc(N4CCN(C)CC4)cc3)nc2n1-c1cccc(C(C)(C)O)n1` [AZD1775] + O=C(c1cc(Cc2n[nH]c(=O)c3ccccc23)ccc1F)N1CCN(C(=O)C2CC2)CC1 [Olaparib] (first compound max 1 µM, partner max 10 µM), the “combination Emax” value in [1] came to 0.839; in [2], 0.433; in the assay with 42-MG-BA (Glioblastoma), 0.278; in assay [3], 0.251; in assay [4], 0.978; in [5] it was 0.461. Further, the “combination Emax” value was 0.458 in [6]; 0.336 in assay [7]; 0.376 in the assay on NOS-1 (Osteosarcoma); 0.574 in assay [8]; 0.547 in the assay with AGS (Gastric Carcinoma); 0.563 in the assay on ES4 (Ewing's Sarcoma). The “combination Emax” value stood at 0.425 in assay [9]; 1 in assay [10]; 0.417 in the assay with HOS (Osteosarcoma); 1 in assay [11]; 0.607 in assay [12]; 0.399 in assay [13]. Besides, the “combination Emax” value in assay [14] turned out to be 0.382; in [15], 0.642.
As to `CCN(CCO)CCCOc1ccc2c(Nc3cc(CC(=O)Nc4cccc(F)c4)[nH]n3)ncnc2c1` [AZD2811] + C=CCn1c(=O)c2cnc(Nc3ccc(N4CCN(C)CC4)cc3)nc2n1-c1cccc(C(C)(C)O)n1 [AZD1775] (first compound max 1 µM, partner max 1 µM), the “combination Emax” value in assay [1] amounted to 0.775; in assay [2], 0.581; in the assay on 42-MG-BA (Glioblastoma), 0.522; in assay [3], 0.27; in assay [4], 0.994; in assay [5] it was 0.352. Moreover, the “combination Emax” value in assay [6] was 0.534; in assay [7] it was 0.854; in the assay on NOS-1 (Osteosarcoma) it was 0.244; in [8], 0.42; in the assay with AGS (Gastric Carcinoma), 0.6; in the assay with ES4 (Ewing's Sarcoma), 0.377. The “combination Emax” value in assay [9] is 0.333; in assay [10], 1; with HOS (Osteosarcoma), 0.298; in assay [11], 0.957; in [12] it was 0.456; in assay [13], 0.306. Also, the “combination Emax” value in assay [14] turned out to be 0.496; in assay [15] it was 0.921.
As to `CCN(CCO)CCCOc1ccc2c(Nc3cc(CC(=O)Nc4cccc(F)c4)[nH]n3)ncnc2c1` [AZD2811] + C[C@@H]1COCCN1C2=NC(=NC(=C2)C3(CC3)[S@](=N)(=O)C)C4=C5C=CNC5=NC=C4 [AZD6738] (first compound max 1 µM, 7x7, partner max 10 µM), the “combination Emax” value came to 0.839 in assay [1]; 0.907 in assay [2]; 0.568 in the assay on 42-MG-BA (Glioblastoma); 0.424 in assay [3]; 1 in [4]; 0.604 in assay [5]. For the same molecule, the “combination Emax” value in assay [6] turned out to be 0.675; in assay [7], 0.849; in the assay on NOS-1 (Osteosarcoma) it was 0.288; in assay [8], 0.754; in the assay with AGS (Gastric Carcinoma), 0.605; in the assay on ES4 (Ewing's Sarcoma), 0.666. Also, the “combination Emax” value stood at 0.54 in [9]; 1 in assay [10]; 0.652 with HOS (Osteosarcoma); 0.911 in assay [11]; 0.238 in assay [12]; 0.558 in assay [13]. Moreover, the “combination Emax” value in assay [14] came to 0.731; in assay [15] it was 0.929.
As for `CCN(CCO)CCCOc1ccc2c(Nc3cc(CC(=O)Nc4cccc(F)c4)[nH]n3)ncnc2c1` [AZD2811] + O=C(c1cc(Cc2n[nH]c(=O)c3ccccc23)ccc1F)N1CCN(C(=O)C2CC2)CC1 [Olaparib] (first compound max 1 µM, 7x7, partner max 10 µM), the “combination Emax” value in [1] came out at 0.622; in assay [2] it was 0.108; in the assay with 42-MG-BA (Glioblastoma) it was 0.464; in assay [3], 0.289; in [4] it was 0.966; in [5] it was 0.268. The “combination Emax” value in assay [6] is 0.297; in assay [7], 0.868; with NOS-1 (Osteosarcoma) it was 0.22; in assay [8], 0.36; with AGS (Gastric Carcinoma), 0.302; in the assay with ES4 (Ewing's Sarcoma), 0.47. Moreover, the “combination Emax” value in assay [9] turned out to be 0.218; in [10] it was 1; in the assay on HOS (Osteosarcoma), 0.0874; in assay [11], 0.295; in assay [12], 0.268; in assay [13], 0.21. Moreover, the figures for the “combination Emax” value in assay [14] and in [15] were 0.25 and 0.88, respectively.
As for `CN(CCO)CC[C@H](CSc1ccccc1)Nc1ccc(S(=O)(=O)NC(=O)c2ccc(N3CCC([C@@H](O)c4ccccc4-c4ccc(Cl)cc4)CC3)cc2)cc1S(=O)(=O)C(F)(F)F` [AZD4320] + C1CN(CCC1(C(=O)N[C@@H](CCO)C2=CC=C(C=C2)Cl)N)C3=NC=NC4=C3C=CN4 [Capivasertib] (first compound max 1 µM, 7x7, partner max 3 µM), the “combination Emax” value turned out to be 0.639 in [1]; 0.447 in assay [2]; 0.594 in the assay on 42-MG-BA (Glioblastoma); 0.0723 in [3]; 1 in [4]; 0.168 in [5]. Also, the “combination Emax” value in assay [6] worked out at 0.59; in [7] it was 0.831; with NOS-1 (Osteosarcoma), 0.475; in [8], 0.213; with AGS (Gastric Carcinoma), 0.692; in the assay on ES4 (Ewing's Sarcoma), 0.564. Moreover, the “combination Emax” value is 0.74 in [9]; 1 in [10]; 0.229 with HOS (Osteosarcoma); 0.586 in assay [11]; 0.338 in assay [12]; 0.329 in [13]. Also, the “combination Emax” value in assay [14] is 0.141; in assay [15] it was 1.
As to `CN(CCO)CC[C@H](CSc1ccccc1)Nc1ccc(S(=O)(=O)NC(=O)c2ccc(N3CCC([C@@H](O)c4ccccc4-c4ccc(Cl)cc4)CC3)cc2)cc1S(=O)(=O)C(F)(F)F` [AZD4320] + C=CCn1c(=O)c2cnc(Nc3ccc(N4CCN(C)CC4)cc3)nc2n1-c1cccc(C(C)(C)O)n1 [AZD1775] (first compound max 1 µM, partner max 1 µM), the “combination Emax” value came out at 0.928 in assay [1]; 0.658 in assay [2]; 0.293 with 42-MG-BA (Glioblastoma); 0.395 in [3]; 0.994 in [4]; 0.689 in assay [5]. Besides, the “combination Emax” value turned out to be 0.884 in [6]; 0.902 in [7]; 0.992 in the assay on NOS-1 (Osteosarcoma); 0.422 in assay [8]; 0.999 in the assay with AGS (Gastric Carcinoma); 1 in the assay with ES4 (Ewing's Sarcoma). Also, the “combination Emax” value turned out to be 0.718 in assay [9]; 1 in assay [10]; 0.379 in the assay on HOS (Osteosarcoma); 1 in assay [11]; 0.634 in [12]; 0.552 in assay [13]. Further, the results for the “combination Emax” value in assay [14] and in assay [15] were 0.615 and 1, respectively.
